These results are taken from US20140363835A1, “COMPATIBLE SOLUTE ECTOINE AS WELL AS DERIVATIVES THEREOF FOR ENZYME STABILIZATION” (Roche Diagnostics Operations, Inc., priority 2012, published 2014).

Entries after “also recorded” stand apart in the source; their conditions may differ.

Test [1] has as its system glucose dehydrogenase and diaphorase. Nature of the test: Blood glucose measurement with stored test elements as indicator for enzymatic activity. The test is classed as biochemical, B. subtilis. The following applies: 1 g/100 g composition; stored 63 days at 4, 24, 35 and 45° C.; normalized to 4° C. The protocol: Test elements were stored in plastic vials in the presence of a drying agent for 63 days at 4° C. (KS), 24° C. (RT), 35° C. (DT) and 45° C. (HT). Test elements were used to determine blood glucose levels in a plurality of venous blood samples. The samples were measured with a reference method (Hitachi) in parallel. Results were normalized with respect to the KS stored test elements.

A further test concerns the target glucose oxidase (Aspergillus niger, UniProt P13006). The following applies: test elements for electrochemically determining glucose; WO 2007/097653, Loose (2006); cited from earlier work.
Another test deals with lactate dehydrogenase. Conditions: in solution; Andersson et al. (2000); cited from earlier work.
For test [2], the system named is diaphorase from B. subtilis. Nature of the test: Enzymatic activity in eluted test elements after dry storage (diaphorase). The following applies: test elements stored dry 6 weeks at 45° C. The test is classed as biochemical. The method, then: (§1) Four different reaction films for determining glucose levels were generated and coated on a foil essentially as described in EP Patent No. 0 821 234. The formulation of the first coat/film layer composition is shown below in Table 1.
(§2) The pH was adjusted to 6.8, and the composition was coated as a first film (about 120 μm) on a polycarbonate foil (125 μm). The coated composition was subsequently dried at 50° C.
(§3) The pH was adjusted to 6.8, and the composition was coated as a second film (about 25 μm) onto the first film coated on the foil. The coated composition was subsequently dried at 50° C. Test strips for glucose determination were generated as described in EP Patent No. 0 821 234.
(§4) Test elements were stored in plastic vials in the presence of a drying agent for 6 weeks at 45° C. In a subsequent step, the test field of a test element was eluted by ultra-sonication using elution buffer. Enzymatic activity was determined in the supernatant.

The subject of test [3] is Glucose dehydrogenase Mut. 2. In words: Enzymatic activity of glucose dehydrogenase mutant 2 in solution after storage. The format is biochemical. The following applies: for stabilizing effect in solution: 1-4% (w/v) stabilizer in solution, storage at 4, 35 or 45° C.; for Enzymatic Activity: in solution. The protocol:
Aliquots of a solution including a glucose dehydrogenase mutant 2 as disclosed in WO Patent Application Publication No. 2011/020856 was combined with different amounts of ectoine or hydroxyectoine as indicated below in Table 4.
The aliquots were stored under different storage conditions (8 days, 4° C.; 8 days 35° C., 4 days 4° C. followed by 4 days 45° C.), and the enzymatic activity was determined after the storage.

The target in the next test is GDH from B. subtilis (Bacillus subtilis, UniProt P12310). In words: Enzymatic activity in eluted test elements after dry storage (GDH). The format is biochemical. Conditions: concentrations larger than 0.3 g/100 g coating composition; test elements stored dry 6 weeks at 45° C. The method, then: as §1, §2, §3, §4
GDH from B. subtilis, sequence (P12310 whole entry): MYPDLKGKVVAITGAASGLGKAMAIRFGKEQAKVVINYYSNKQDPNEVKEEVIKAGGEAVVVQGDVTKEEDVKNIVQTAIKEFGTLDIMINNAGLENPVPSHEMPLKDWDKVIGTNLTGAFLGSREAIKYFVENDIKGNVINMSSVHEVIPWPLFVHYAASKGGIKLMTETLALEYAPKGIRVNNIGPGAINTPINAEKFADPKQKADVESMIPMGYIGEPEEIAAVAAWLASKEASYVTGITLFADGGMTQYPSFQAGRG
Test [4] has as its target Gluc-DOR (a PQQ-dependent GDH) (Acinetobacter calcoaceticus, UniProt P13650). Nature of the test: Enzymatic activity in test elements including Gluc-DOR. The format is biochemical. Conditions: dry test element; after 3 weeks at 45° C. The method, then:
(§5) A test element with Gluc-DOR and a mutant thereof (Gluc-DOR 31) was generated as described above in Example 1. The test element was analyzed as described above in Example 2. The determination of the enzymatic activity was carried out using nitrosoaniline as described in EP Patent No. 0 620 283.

The test system of a further test is Gluc-DOR 31 mutant. In words: Enzymatic activity in test elements including Gluc-DOR 31 mutant. The test is classed as biochemical. The following applies: dry test element; after 3 weeks at 45° C. The protocol: as §5
Test [5] relates to glucose dehydrogenase and diaphorase. Nature of the test: Enzymatic activity in test elements with different buffers. The format is biochemical, B. subtilis. Conditions: 2 g ectoine per 100 g first coating film; phosphate-buffer pH 6.8 or HEPES pH 7.1; 45 days, 45° C. to 4° C. An excerpt: Test elements were stored and treated essentially as described in Example 3. Different buffers, namely a phosphate-buffer pH 6.8, without stabilizer, a phosphate-buffer pH 6.8, 2 g ectoine per 100 g first coating film, a HEPES buffer pH 7.1, without stabilizer, and a HEPES buffer pH 7.1, 2 g ectoine per 100 g first coating film, were used in the coating compositions as indicated in FIG. 4.

The mark [6] stands for this setting: stabilizer about 1%, 4 days at 4° C., 4 days at 45° C.
[7] abbreviates: stabilizer about 1%, 8 days at 4° C.
Where [8] appears, read: stabilizer about 1%, 8 days at 35° C.
[9] abbreviates: stabilizer about 2%, 4 days at 4° C., 4 days at 45° C.
[10] abbreviates: stabilizer about 2%, 8 days at 4° C.
Setting [11] is: stabilizer about 2%, 8 days at 35° C.
The mark [12] stands for this setting: stabilizer about 4%, 4 days at 4° C., 4 days at 45° C.
[13] abbreviates: stabilizer about 4%, 8 days at 4° C.
Setting [14] is: stabilizer about 4%, 8 days at 35° C.

glucose oxidase, sequence (P13006 17-605, species assumed): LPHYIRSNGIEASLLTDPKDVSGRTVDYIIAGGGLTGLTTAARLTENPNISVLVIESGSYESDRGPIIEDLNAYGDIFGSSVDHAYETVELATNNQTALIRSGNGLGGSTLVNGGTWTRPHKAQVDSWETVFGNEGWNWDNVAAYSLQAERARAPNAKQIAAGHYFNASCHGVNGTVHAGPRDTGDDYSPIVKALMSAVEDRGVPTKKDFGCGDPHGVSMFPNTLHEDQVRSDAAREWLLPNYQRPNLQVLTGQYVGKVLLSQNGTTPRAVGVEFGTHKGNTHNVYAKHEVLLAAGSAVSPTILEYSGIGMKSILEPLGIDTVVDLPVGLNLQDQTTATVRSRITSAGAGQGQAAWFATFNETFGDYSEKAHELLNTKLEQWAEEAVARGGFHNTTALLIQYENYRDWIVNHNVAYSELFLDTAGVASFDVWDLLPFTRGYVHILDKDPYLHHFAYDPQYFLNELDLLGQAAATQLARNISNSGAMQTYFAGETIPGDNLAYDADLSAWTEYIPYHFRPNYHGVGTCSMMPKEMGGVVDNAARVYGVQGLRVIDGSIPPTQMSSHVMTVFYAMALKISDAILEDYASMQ
Gluc-DOR (a PQQ-dependent GDH), sequence (P13650 25-478): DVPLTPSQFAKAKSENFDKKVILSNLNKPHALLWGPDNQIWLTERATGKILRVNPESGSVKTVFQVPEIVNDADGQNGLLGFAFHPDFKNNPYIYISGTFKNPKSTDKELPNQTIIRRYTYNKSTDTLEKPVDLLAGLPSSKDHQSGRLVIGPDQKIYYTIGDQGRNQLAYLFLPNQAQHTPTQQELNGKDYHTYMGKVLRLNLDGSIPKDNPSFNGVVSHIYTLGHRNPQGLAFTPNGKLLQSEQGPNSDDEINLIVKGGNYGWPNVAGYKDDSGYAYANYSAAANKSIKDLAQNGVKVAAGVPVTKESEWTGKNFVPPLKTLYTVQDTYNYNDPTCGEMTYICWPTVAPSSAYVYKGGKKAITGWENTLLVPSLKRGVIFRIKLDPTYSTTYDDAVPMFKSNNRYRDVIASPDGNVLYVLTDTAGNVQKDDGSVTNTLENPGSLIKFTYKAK

Consider `CC1=NC[C@H](O)[C@@H](C(=O)O)N1` [hydroxyectoine], for which the “preservation of enzymatic activities (measured glucose level)” value in [1] is on record as “act as stabilizers”. At glucose oxidase, the “stabilization of glucose oxidase” value is “Stabilization”. For the same compound, in the test on lactate dehydrogenase, the “prevention of protein aggregation” value is on record as “incapable of preventing protein aggregation”. For the same compound, the stabilization of diaphorase entry in test [2] was “stabilized”. For the same compound, the “stabilizing effect in solution” value in test [3] is “No stabilizing effect”. Further, the “Enzymatic Activity” value in test [3] (setting [6]) was determined as 52 kU/g; in [3] (setting [7]) it was 208 kU/g; in test [3] (setting [8]), 122 kU/g; in [3] (setting [9]), 60 kU/g; in test [3] (setting [10]), 221 kU/g; in test [3] (setting [11]), 141 kU/g. In addition, the “Enzymatic Activity” value in test [3] (setting [12]) worked out at 56 kU/g; in test [3] (setting [13]), 207 kU/g; in test [3] (setting [14]), 131 kU/g. Further, the “stabilizing effect (activity versus test elements without stabilizer)” value at GDH from B. subtilis is recorded as “same effect”.
As to `CC1=NCC[C@@H](C(=O)O)N1` [ectoine, (S)-2-methyl-3,4,5,6-tetrahydropyrimidine-4-carboxylic acid], the “preservation of enzymatic activities (measured glucose level)” value in [1] is recorded as “act as stabilizers”. Moreover, the “stabilization of glucose oxidase” value at glucose oxidase was “Stabilization”. Also, the stabilization of diaphorase entry in test [2] is on record as “stabilized”. Moreover, the “stabilizing effect on Gluc-DOR” value in test [4] is “stabilizing effect”. In test [3], the “stabilizing effect in solution” value is on record as “No stabilizing effect; also recorded: not observed”. In addition, the “Enzymatic Activity” value is listed as 60 kU/g in [3] (setting [6]); 222 kU/g in test [3] (setting [7]); 144 kU/g in test [3] (setting [8]); 59 kU/g in test [3] (setting [9]); 222 kU/g in [3] (setting [10]); 149 kU/g in test [3] (setting [11]). In addition, the “Enzymatic Activity” value in test [3] (setting [12]) amounted to 57 kU/g; in [3] (setting [13]), 207 kU/g; in test [3] (setting [14]), 137 kU/g. In the test on Gluc-DOR 31 mutant, the “stabilizing effect on Gluc-DOR 31 mutant” value was “stabilizing effect”. Besides, in test [5], the “stabilizing activity with different buffers” value was “observed independent of the buffer system”. Besides, the “stabilizing effect (activity versus test elements without stabilizer)” value on GDH from B. subtilis was “more than 10%”.
